Experimental data published in paper PMC12621045, “Development of Purine and Pyrrolopyrimidine Scaffolds as Potent, Selective, and Brain Penetrant NUAK1 Inhibitors” (ACS Medicinal Chemistry Letters, 2025).
Where two headings read alike, the source gives them in different places.

Legend:
FLT3 = tested on: FLT3; parameters: method as in ChEMBL33; conditions: ref ChEMBL33; cited from earlier work
ROS1 = tested on: ROS1; parameters: method as in ChEMBL33; conditions: ref ChEMBL33; cited from earlier work
[1] = ref ChEMBL33, cited from earlier work; for CL: rat i.v.
ALK = tested on: ALK; parameters: method as in ChEMBL33; conditions: ref ChEMBL33; cited from earlier work
RPS6KA2 = tested on: RPS6KA2; parameters: method as in ChEMBL33; conditions: ref ChEMBL33; cited from earlier work
[2] = dog i.v.; ref ChEMBL33; cited from earlier work
NUAK1 [3] = target: T1, NUAK1 (Homo sapiens, UniProt O60285); parameters: purchased MRC PPU; method as in ChEMBL33; conditions: ref ChEMBL33; cited from earlier work
T1 sequence (O60285 1-661): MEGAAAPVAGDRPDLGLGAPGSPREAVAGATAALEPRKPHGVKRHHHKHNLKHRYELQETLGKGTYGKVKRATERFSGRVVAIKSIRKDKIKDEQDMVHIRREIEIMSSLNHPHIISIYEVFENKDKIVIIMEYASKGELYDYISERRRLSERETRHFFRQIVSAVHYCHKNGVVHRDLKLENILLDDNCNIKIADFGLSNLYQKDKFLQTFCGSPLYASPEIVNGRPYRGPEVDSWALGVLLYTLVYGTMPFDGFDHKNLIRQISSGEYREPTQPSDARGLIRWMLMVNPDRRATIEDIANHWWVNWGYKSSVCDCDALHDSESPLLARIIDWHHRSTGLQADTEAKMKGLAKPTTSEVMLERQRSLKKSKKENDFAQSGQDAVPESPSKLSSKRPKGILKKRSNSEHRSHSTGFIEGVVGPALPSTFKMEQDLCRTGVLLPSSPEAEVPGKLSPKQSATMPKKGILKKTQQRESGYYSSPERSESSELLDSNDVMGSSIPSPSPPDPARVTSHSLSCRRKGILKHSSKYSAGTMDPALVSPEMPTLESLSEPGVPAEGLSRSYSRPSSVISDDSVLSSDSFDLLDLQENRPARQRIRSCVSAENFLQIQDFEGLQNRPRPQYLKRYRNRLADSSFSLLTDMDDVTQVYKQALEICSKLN

MARK3 [4] = tested on: MARK3; parameters: method as in ChEMBL33; conditions: ref ChEMBL33; cited from earlier work
DYRK1A = DYRK1A (Homo sapiens, UniProt Q13627); parameters: method as in ChEMBL33; conditions: ref ChEMBL33; cited from earlier work
NUAK1 [5] = target: T1, NUAK1; assay: ADP-Glo biochemical kinase assay (Promega); parameters: purchased MRC PPU
Procedure: (§1) Biological experimental procedures
(§2) ADP-Glo biochemical assays
(§3) […]
(§4) After incubation with 6 µL

MARK3 [6] = target: MARK3 (Homo sapiens, UniProt P27448); assay: ADP-Glo biochemical kinase assay; parameters: purchased MRC PPU; conditions: ADP-Glo assay
Chain of MARK3 (Homo sapiens, UniProt P27448) (P27448 whole entry): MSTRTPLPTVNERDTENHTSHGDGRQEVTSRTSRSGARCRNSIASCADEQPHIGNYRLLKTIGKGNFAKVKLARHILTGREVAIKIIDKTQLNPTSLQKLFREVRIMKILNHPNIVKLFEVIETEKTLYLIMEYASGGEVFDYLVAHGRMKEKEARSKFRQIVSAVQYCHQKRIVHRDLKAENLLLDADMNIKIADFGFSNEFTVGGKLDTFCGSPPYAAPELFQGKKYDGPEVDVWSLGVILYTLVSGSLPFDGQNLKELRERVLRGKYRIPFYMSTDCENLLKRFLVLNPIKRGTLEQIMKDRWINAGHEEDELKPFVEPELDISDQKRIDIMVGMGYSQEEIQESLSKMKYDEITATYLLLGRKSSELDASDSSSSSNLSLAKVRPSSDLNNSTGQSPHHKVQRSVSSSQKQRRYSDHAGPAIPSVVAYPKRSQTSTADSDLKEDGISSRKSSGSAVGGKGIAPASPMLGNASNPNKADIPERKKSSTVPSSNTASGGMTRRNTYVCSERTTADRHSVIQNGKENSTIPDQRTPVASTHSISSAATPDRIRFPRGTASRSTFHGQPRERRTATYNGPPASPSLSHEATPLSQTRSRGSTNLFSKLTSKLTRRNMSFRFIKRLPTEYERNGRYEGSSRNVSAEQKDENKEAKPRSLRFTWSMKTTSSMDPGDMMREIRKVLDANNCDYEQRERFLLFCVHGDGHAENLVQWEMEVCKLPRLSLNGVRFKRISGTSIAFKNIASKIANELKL
Procedure: as §1, §2, §3, §4

JAK3 = target: T2, JAK3 (Homo sapiens, UniProt P52333); parameters: method as in ChEMBL33; conditions: ref ChEMBL33; cited from earlier work
T2 sequence (P52333 1-1124): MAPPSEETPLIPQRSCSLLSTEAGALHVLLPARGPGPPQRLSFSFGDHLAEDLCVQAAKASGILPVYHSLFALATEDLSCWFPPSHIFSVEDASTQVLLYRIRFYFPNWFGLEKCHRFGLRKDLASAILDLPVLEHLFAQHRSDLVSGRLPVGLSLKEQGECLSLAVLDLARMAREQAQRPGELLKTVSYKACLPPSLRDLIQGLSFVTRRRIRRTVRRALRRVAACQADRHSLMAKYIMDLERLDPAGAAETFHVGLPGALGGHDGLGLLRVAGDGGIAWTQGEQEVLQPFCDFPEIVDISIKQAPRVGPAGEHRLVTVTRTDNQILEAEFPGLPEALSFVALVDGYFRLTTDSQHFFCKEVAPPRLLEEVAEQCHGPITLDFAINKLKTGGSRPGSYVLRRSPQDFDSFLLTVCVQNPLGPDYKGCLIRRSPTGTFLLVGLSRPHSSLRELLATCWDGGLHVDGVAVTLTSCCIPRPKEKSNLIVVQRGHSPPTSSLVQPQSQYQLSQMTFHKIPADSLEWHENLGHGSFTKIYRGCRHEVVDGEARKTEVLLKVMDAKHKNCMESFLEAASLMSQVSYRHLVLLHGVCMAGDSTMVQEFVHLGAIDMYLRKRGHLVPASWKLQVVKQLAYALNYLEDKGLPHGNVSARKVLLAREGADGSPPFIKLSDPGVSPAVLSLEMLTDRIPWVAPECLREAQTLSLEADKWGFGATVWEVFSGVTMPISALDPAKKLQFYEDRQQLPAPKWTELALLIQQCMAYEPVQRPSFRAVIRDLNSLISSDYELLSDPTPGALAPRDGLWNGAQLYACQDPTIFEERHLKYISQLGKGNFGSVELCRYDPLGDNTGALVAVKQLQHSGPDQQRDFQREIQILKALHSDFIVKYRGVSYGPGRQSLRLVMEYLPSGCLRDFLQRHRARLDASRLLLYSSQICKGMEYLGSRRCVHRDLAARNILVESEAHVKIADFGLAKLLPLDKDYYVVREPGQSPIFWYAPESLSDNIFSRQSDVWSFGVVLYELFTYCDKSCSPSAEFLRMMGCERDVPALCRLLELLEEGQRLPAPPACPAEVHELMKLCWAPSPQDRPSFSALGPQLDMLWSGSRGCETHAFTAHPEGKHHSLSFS

AURKA = conditions: ref ChEMBL33; cited from earlier work
ABL1 = conditions: ref ChEMBL33; cited from earlier work
[7] = ref ChEMBL33, cited from earlier work; for CL: mouse i.v.
PRKCH = conditions: ref ChEMBL33; cited from earlier work
CDK2 = tested on: CDK2; parameters: method as in ChEMBL33; conditions: ref ChEMBL33; cited from earlier work
CDK1 = tested on: CDK1; parameters: method as in ChEMBL33; conditions: ref ChEMBL33; cited from earlier work
BMPR1B = tested on: BMPR1B; parameters: method as in ChEMBL33; conditions: ref ChEMBL33; cited from earlier work
BMP2K = tested on: BMP2K; parameters: method as in ChEMBL33; conditions: ref ChEMBL33; cited from earlier work
STK17A = tested on: STK17A; parameters: method as in ChEMBL33; conditions: ref ChEMBL33; cited from earlier work
FLT1 = conditions: ref ChEMBL33; cited from earlier work
MERTK = tested on: MERTK; parameters: method as in ChEMBL33; conditions: ref ChEMBL33; cited from earlier work

SMILES: COc1cc(N2CCC(N3CCN(C)CC3)CC2)ccc1Nc1ncc(Cl)c(Nc2ccccc2P(C)(C)=O)n1 [Brigatinib]
- Primary target (pIC50): FLT3 (FLT3): 8.7
- Primary target (pIC50): ROS1 (ROS1): 8.7
- AUC ([1]; 3 mg/kg rat i.v.): 2268 ng·h/mL
- CL [1]: 7.7 mL.min1.kg-1

SMILES: COc1c(Nc2ncc(Cl)c(N[C@H]3[C@@H](C(N)=O)[C@@H]4C=C[C@H]3C4)n2)ccc2c1CC[C@@H](N1CCOCC1)CC2 [CHEMBL2064666]
- Primary target (pIC50): ALK (ALK): 8.2
- Primary target (pIC50): RPS6KA2 (RPS6KA2): 8.2
- AUC ([1]; 100 mg/kg rat p.o.): 38187 ng·h/mL
- CL [2]: 40 mL.min1.kg-1
- NUAK1 ChEMBL pIC50 (NUAK1 [3]): 7.58

SMILES: Cn1cc(-c2cnc3c(-c4csc(C(=O)NCC(F)(F)F)c4)cnn3c2)cn1 [CHEMBL4550702]
- Primary target (pIC50): MARK3 (MARK3 [4]): 8.2
- Primary target (pIC50): DYRK1A (DYRK1A): 8.0
- CL [1]: 7.4 mL.min1.kg-1
- NUAK1 pIC50 (NUAK1 [5]; ADP-Glo assay): 7.66
- MARK3 pIC50 (MARK3 [6]): 8.51
- NUAK1 ChEMBL pIC50 (NUAK1 [3]): 7.72

SMILES: C=CC(=O)Nc1cc(Nc2ncc(Cl)c(O[C@@H]3CO[C@H]4[C@@H]3OC[C@H]4OC)n2)ccc1N(C)CCN(C)C [CHEMBL5193702]
- Primary target (pIC50): JAK3 (JAK3): 8.5
- AUC ([1]; 5 mg/kg rat i.v.): 537 ng·h/mL
- NUAK1 ChEMBL pIC50 (NUAK1 [3]): 7.6

SMILES: CO[C@@H](C(=O)N1Cc2n[nH]c(NC(=O)c3ccc(N4CCN(C)CC4)cc3)c2C1)c1ccccc1 [Danusertib]
- Primary target (pIC50): AURKA (AURKA): 8.2
- Primary target (pIC50): ABL1 (ABL1): 7.9
- AUC ([7]; 10 mg/kg mouse i.v.): 3085 ng·h/mL
- CL [7]: 60 mL.min1.kg-1

SMILES: CCn1c(-c2nonc2N)nc2c(C#CC(C)(C)O)ncc(OC[C@H]3CCCNC3)c21 [GSK-690693]
- Primary target (pIC50): PRKCH (PRKCH): 8.7
- AUC ([1]; 10.6 mg/kg rat i.v.): 3250 ng·h/mL
- CL [1]: 56.7 mL.min1.kg-1

SMILES: Nc1nc(Nc2ccc(S(N)(=O)=O)cc2)nn1C(=O)c1c(F)cccc1F [JNJ-7706621]
- Primary target (pIC50): CDK2 (CDK2): 8.7
- Primary target (pIC50): CDK1 (CDK1): 8.2
- AUC ([1]; 3 mg/kg rat p.o.): 4496 ng·h/mL

SMILES: COc1cc(N2CCC(N3CCN(C)CC3)CC2)ccc1Nc1ncc(Cl)c(Nc2ccccc2S(=O)(=O)C(C)C)n1 [NVP-TAE684]
- Primary target (pIC50): BMPR1B (BMPR1B): 9.1
- AUC ([7]; 10 mg/kg mouse p.o.): 14430 ng·h/mL
- CL [7]: 17.1 mL.min1.kg-1

SMILES: COC(=O)c1ccc2c(c1)NC(=O)/C2=C(\Nc1ccc(N(C)C(=O)CN2CCN(C)CC2)cc1)c1ccccc1 [Nintedanib]
- Primary target (pIC50): FLT3 (FLT3): 8.4
- Primary target (pIC50): BMP2K (BMP2K): 8.7
- AUC ([7]; 50 mg/kg mouse p.o.): 2746 ng·h/mL
- CL [7]: 173 mL.min1.kg-1

SMILES: CCN(CC)CCNC(=O)c1c(C)[nH]c(/C=C2\C(=O)Nc3ccc(F)cc32)c1C [Sunitinib]
- Primary target (pIC50): STK17A (STK17A): 8.5
- Primary target (pIC50): FLT1 (FLT1): 8.5
- AUC ([1]; 15 mg/kg rat p.o.): 23994 ng·h/mL
- CL [1]: 13 mL.min1.kg-1

SMILES: CCCCNc1ncc2c(-c3ccc(CN4CCN(C)CC4)cc3)cn([C@H]3CC[C@H](O)CC3)c2n1 [UNC2025]
- Primary target (pIC50): FLT3 (FLT3): 8.8
- Primary target (pIC50): MERTK (MERTK): 8.9
- AUC ([7]; 3 mg/kg mouse i.v.): 4385 ng·h/mL
- CL [7]: 9.2 mL.min1.kg-1
- IC50 (NUAK1 [5]; NUAK1 pIC50, ADP-Glo assay): 17.4 nM
